Data as given in US4076819A, “Thieno-pyridine derivatives and therapeutic composition containing same” (priority 1975, dated 1978).

Key:
[1] = in vivo; settings: mouse, mice, intravenous route, calculated by method of Miller and Tainter, read-out: LD50 /24 hrs/kg body weight
[2] = test system: carrageenin-induced edema; experiment: Localized carrageenin-induced edema method (anti-inflammatory action); assay type: in vivo; settings: rats, oral 100 mg/kg given 1 h before, simultaneously with, and 1 h and 2.5 h after carrageenin
Experimental: (a) Localized carrageenin-induced edema method
A 1% carrageenin solution (1 ml) is injected in the metatarsal flexor muscles of the right hind limb of rats at time 0. The animals of the treated group are additionally administered orally 100 mg/kg of the test derivative, respectively 1 hour prior to and then simultaneously with the phlogogenic agent, and then one hour and 2.5 hours thereafter. The percent anti-inflammatory activity, as a function of time, is determined by measurements effected with a ROCH micrometer at times 0, 1 hour, 2 hours, 3 hours and 5 hours after carrageenin administration.

[3] = test system: ovalbumin-induced systemic edema; experiment: Ovalbumin-induced systemic edema method (anti-inflammatory action); assay type: in vivo; settings: rats, oral 100 mg/kg given 1 h before and simultaneously with ovalbumin
Experimental: (b) Ovalbumin-induced systemic edema method
Rats are administered a simultaneous intraperitoneal injection of 1 ml ovalbumin and 0.5 ml of a 1% aqueous Evans Blue solution. The animals of the treated group are additionally administered orally 100 mg/kg of the test derivative, one hour prior to ovalbumin administration and simultaneously with said ovalbumin administration. The intensity of the phenomenon thus induced is scored according to a scale from 1 to 5, according to the progress of the inflammatory syndrome. The determinations are effected after 2 hours and after 3 hours. Thus are determined the mean intensity of the edema and the percent decrease of the edema reaction.

[4] = test system: blood plate aggregation; experiment: Inhibiting activity on blood plate aggregation (adenosine diphosphate-induced, turbidimetric assay on plasma of treated rats); assay type: in vivo; settings: Rattus norvegicus, rats administered 100 mg/kg, read-out: percent inhibition on blood plate aggregation
Experimental: 2. Inhibiting activity on blood plate aggregation
Rat plasma, prepared to contain 600,000±20,000 blood platelets per mm^3 is normally cloudy. Addition of adenosine diphosphate induces blood plate aggregation and, thus, an increase of the light transmission, a phenomenon readily measurable with a spectrophotometer. When the same test is effected with a plasma prepared from the blood of an animal which has been administered 100 mg/kg of a derivative having an inhibiting effect on blood plate aggregation, there is no aggregation of the blood plates and the serum remains cloudy. The turbidimetric assay effected with a spectrophotometer provides a measure of the inhibiting activity on blood plate aggregation of the test derivatives.

Row | SMILES | LD50 at 24 h [1] [mg/kg] | Percent anti-inflammatory activity after 1 hour [2] [%] | Percent anti-inflammatory activity after 2 hours [2] [%] | Percent anti-inflammatory activity after 5 hours [2] [%] | Percent decrease (of the edema reaction) After 2 hours [3] [%] | Percent decrease (of the edema reaction) After 3 hours [3] [%] | inhibition at 100 mg/kg [4] [%]
1 | O=[N+]([O-])c1ccc(CN2Cc3ccsc3C(O)C2)cc1 (centres unmarked) [Derivative 1, 7-Hydroxy-5-p.nitrobenzyl-4,5,6,7-tetrahydro-thieno[3,2-c]-pyridine] | 90 |  |  |  |  |  | 
2 | O=C(CN1CCCC1)N1Cc2sccc2C(O)C1 (centres unmarked) [Derivative 2, 4-Hydroxy-6-pyrrolidinoacetyl-4,5,6,7-tetrahydro-thieno[2,3-c]-pyridine] | 225 | 35 | 48 | 55 | 38 | 44 | 
3 | Cc1ccc(S(=O)(=O)N2Cc3sccc3C(O)C2)cc1 (centres unmarked) [Derivative 4, 4-Hydroxy-6-p.toluenesulfonyl-4,5,6,7-tetrahydro-thieno[2,3-c]-pyridine] |  |  |  |  |  |  | 92
4 | O=C(Nc1ccccc1)N1Cc2sccc2C(O)C1 (centres unmarked) [Derivative 5, 4-Hydroxy-6-N-phenylcarbamoyl-4,5,6,7-tetrahydro-thieno[2,3-c]-pyridine] |  | 41 | 50 | 55 | 33 | 43 | 89
5 | CC(=O)CCN1Cc2ccsc2C(O)C1 (centres unmarked) [Derivative 7, 7-Hydroxy-5-(3-oxo-butyl)-4,5,6,7-tetrahydro-thieno[3,2-c]-pyridine] | 260 | 42 | 56 | 60 | 41 | 52 | 
6 | CC(=O)OC1CN(Cc2ccccc2Cl)Cc2ccsc21 (centres unmarked) [Derivative 8, 7-Acetoxy-5-o-chlorobenzyl-4,5,6,7-tetrahydro-thieno[3,2-c]-pyridine] | 200 |  |  |  |  |  | 
7 | CCCNC(=O)OC1CN(C)Cc2sccc21 (centres unmarked) [Derivative 9, 6-Methyl-4-N-propylcarbamoyloxy-4,5,6,7-tetrahydro-thieno-[2,3-c]-pyridine] | 220 |  |  |  |  |  | 86
8 | CN1Cc2sccc2C(O)C1 (centres unmarked) [Derivative 10] | 340 |  |  |  |  |  | 
9 | CC1c2sccc2C(O)CN1C (centres unmarked) [Derivative 11] | 220 |  |  |  |  |  | 
10 | CC(=O)OC1CN(C)Cc2sccc21 (centres unmarked) [Derivative 12] | 260 | 37 | 50 | 58 | 46 | 59 | 
11 | CNC(=O)OC1CN(C)Cc2sccc21 (centres unmarked) [Derivative 14] | 280 |  |  |  |  |  | 
12 | CC(=O)CCN1Cc2sccc2C(O)C1 (centres unmarked) [Derivative 16] | 250 |  |  |  |  |  | 
13 | CC(=O)OC1CN(Cc2ccccc2Cl)Cc2sccc21 (centres unmarked) [Derivative 18] |  | 34 | 44 | 57 | 42 | 58 | 74
14 | OC1CN(Cc2ccc(Cl)cc2)Cc2sccc21 (centres unmarked) [Derivative 20] | 110 |  |  |  |  |  | 
15 | COc1ccc(CN2Cc3sccc3C(OC(C)=O)C2)cc1 (centres unmarked) [Derivative 21] | 245 |  |  |  |  |  | 
16 | O=[N+]([O-])c1ccccc1CN1Cc2sccc2C(O)C1 (centres unmarked) [Derivative 22] |  |  |  |  |  |  | 93
17 | O=[N+]([O-])c1ccc(CN2Cc3sccc3C(O)C2)cc1 (centres unmarked) [Derivative 24] | 150 |  |  |  |  |  | 
18 | CC(=O)OC1CN(C(=O)C(Cl)Cl)Cc2sccc21 (centres unmarked) [Derivative 25] |  |  |  |  |  |  | 84
19 | COc1cc(C(=O)N2Cc3sccc3C(O)C2)cc(OC)c1OC (centres unmarked) [Derivative 26] |  | 36 | 49 | 54 | 51 | 63 | 
20 | CN1Cc2ccsc2C(O)C1 (centres unmarked) [Derivative 29] | 350 | 45 | 55 | 61 | 49 | 59 | 88
